The test system of assay [1] is MDA-MB-231 cells. In words: DNA content flow cytometry (propidium iodide): G2/M arrest and aneuploidy. The conditions noted are these: mdivi-1 50 μM 24 and 48 h, siRNA 72 and 96 h. In kind it is cell-based, human. In general terms: Flow cytometry measures light scatter and fluorescence of single cells or particles in a stream.
Procedure: Cell cycle distribution was determined by flow cytometric analysis of propidium iodide stained cells. The percentage of the cells containing a DNA content of 4N and a DNA content>4N are indicated. […] MDA-MB-231 cells were treated with either 5 μg/ml oligomycin, 5 μM FCCP, or 10 μg/ml antimycin A for 24 h. Cell cycle distribution was determined as described above.
Cell cycle distribution was determined by flow cytometric analysis of propidium iodide stained cells. The percentage of the cells containing a DNA content of 4N and >4N are indicated. Data presented in this figure are representative of three independent experiments.
For DNA content analysis, cells were trypsinized and fixed in 70% ice-cold ethanol overnight at 4° C. After fixation, the cells were washed with 1% BSA/PBS, and permeabilized using 0.25% triton-X 100 in 1% BSA/PBS. Cells were then incubated in PI solution (PBS containing 50 μg/ml of PI and 40 μg/ml of RNase A) for 30 min at room temperature.
The target in assay [2] is T1, Dnm1, the yeast ortholog of Drp1 (Saccharomyces cerevisiae, UniProt P54861).
T1 sequence (P54861 1-757): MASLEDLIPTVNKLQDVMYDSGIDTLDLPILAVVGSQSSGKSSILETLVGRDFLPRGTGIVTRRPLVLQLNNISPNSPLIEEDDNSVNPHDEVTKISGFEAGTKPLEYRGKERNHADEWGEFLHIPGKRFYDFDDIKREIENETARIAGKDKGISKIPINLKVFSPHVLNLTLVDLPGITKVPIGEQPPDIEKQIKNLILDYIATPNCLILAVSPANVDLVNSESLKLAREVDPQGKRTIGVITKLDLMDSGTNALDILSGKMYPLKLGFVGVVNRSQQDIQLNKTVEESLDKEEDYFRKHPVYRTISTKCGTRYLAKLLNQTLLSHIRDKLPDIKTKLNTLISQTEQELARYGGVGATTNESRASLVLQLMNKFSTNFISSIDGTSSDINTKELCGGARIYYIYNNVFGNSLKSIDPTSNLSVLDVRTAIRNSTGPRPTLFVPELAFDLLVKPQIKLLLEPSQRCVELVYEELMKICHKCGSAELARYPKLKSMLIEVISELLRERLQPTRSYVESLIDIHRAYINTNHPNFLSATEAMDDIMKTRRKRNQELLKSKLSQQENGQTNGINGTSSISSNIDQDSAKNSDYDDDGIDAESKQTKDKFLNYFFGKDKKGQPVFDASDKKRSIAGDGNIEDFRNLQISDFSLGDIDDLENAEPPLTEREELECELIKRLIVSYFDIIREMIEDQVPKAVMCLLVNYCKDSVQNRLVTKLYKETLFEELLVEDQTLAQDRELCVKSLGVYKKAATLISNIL
The conditions noted are these: US2005/0038051 and US2008/0287473; cited from earlier work.

For assay [3], the system named is Bax/Bak WT and double knockout (DKO) SV40-transformed MEF cells. The assay is described as follows: Apoptosis, ROS and mitochondrial morphology in Bax/Bak MEF cells. In kind it is cell-based, mouse. Particulars: cisplatin alone 20 h in DKO cells; combination within 8 h. How it is done: FIG. 24A-E. The combination of cisplatin and mdivi-1 enhances MOMP bypassing Bax/Bak-dependent mechanism. (A) Bax/Bak wild-type (Bax/Bak+/+) and double knockout (Bax/Bak−/−) SV40-transformed MEF cells were treated with cisplatin at indicated concentrations for 20 h. The cleavage of caspase-9 and -3 were detected by western blot. (B, C) Cleavage of caspase-9 and -3 in Bax/Bak wild-type and double knockout MEF cells after combination treatment. (D) Quantification of apoptotic cells by Annexin V and PI after 8 h treatment of combination at 50 μM. (E) Release of cytochrome c from Bax/Bak wild-type and double knockout MEF cells after combination treatment.
FIG. 25A-I. Mdivi-1 causes mitochondrial dysfunction and its combination with cisplatin induces mitochondrial swelling that triggers Bax/Bak-independent MOMP. (A) MDA-MB-231 cells and H1299 cells were treated as indicated for 4 h and subjected to ATP determination. […] (B, C) OCR and ECAR were measured after 4 h treatment of H1299 cells with agents alone or the combination (C/M). […] Mitochondrial membrane potential was determined with TMRM. […] Mitochondrial membrane potential was measured as in D. (F) Bax/Bak double knockout MEF cells were treated as indicated for 2 h, ROS generation was determined with DCF-DA. […] Mitochondrial morphology was analyzed by confocal microscopy. […] Mitochondrial ultrastructure was analyzed by electron microscopy. […]

Consider two compounds from patent US9492450B2, “Inhibition of dynamin related protein 1 to promote cell death” (University of Pittsburgh—of the Commonwealth System of …, priority 2011, dated 2016).

Turning to `COc1cc(-n2c(=S)[nH]c3ccccc3c2=O)c(Cl)cc1Cl` [mdivi-1], the “G2/M cell cycle arrest and aneuploidy” value is “induces G2/M cell cycle arrest and aneuploidy” in assay [1]; “induced the similar G2/M cell cycle arrest and aneuploidy” in assay [1] (listed as Mdivi-1). In assay [2], the “inhibition of Dnm1” value is reported as “selective inhibitor”.

`N.N.[Cl][Pt][Cl]` [cisplatin]: the “cleavage of caspase-9 and -3” value in assay [3] was “absence of cleavage of caspase-9 and -3”.
